A short description of this data set: Vacuum-assisted trans-epithelial delivery of riboflavin into rabbit corneas, compared with standard delivery after epithelium removal. The format is in vivo. Particulars: trans-epithelial vacuum delivery through intact epithelium, varying application time periods; compared with standard method in which the epithelium is surgically removed. The method, then: The device and method herein were tested to verify the effectiveness of the vacuum delivery system and to quantify concentrations of the standard formulation of riboflavin that is used in the process of cross-linking collagen corneal tissue in rabbit corneas. The tests employed the present invention to facilitate trans-epithelial delivery of riboflavin at varying application time periods, and compare the concentrations achieved with the concentration of riboflavin achieved through the standard method of riboflavin delivery (i.e., in which the epithelium is surgically removed). […] In other embodiments, high levels of vacuum, higher riboflavin concentrations, and the use of penetration enhancers may be used to increase the amount of riboflavin diffusion into the cornea per unit time. These animal studies clearly provide a proof of principle for the efficacious delivery of riboflavin into the cornea, through an intact epithelium, using the device and method of this invention. These studies also provide critical concentration/treatment time data for utilizing this invention.

`Cc1cc2nc3c(=O)[nH]c(=O)nc-3n(C[C@H](O)[C@H](O)[C@H](O)CO)c2cc1C` [riboflavin]: the “riboflavin delivery to the cornea (concentration achieved)” value was “equivalent to the effect of removing the corneal epithelium”.

The record behind these values is US11351347B2, “Vacuum-assisted drug delivery device and method” (VacuMed, LLC., priority 2014, dated 2022).
